Measurements from patent US11612572B2, “Treatment of schizophrenia using beta-caryophyllene and CB2 receptor agonists” (priority 2012, dated 2023).
“Also recorded” adds a separate entry of the source.

Key:
[1] = tested on: mouse model of schizophrenia; test: Elevated Plus Maze test; details: for time spent in the distal end of the opened arm (anxiety): Study I, age 13 weeks
cannabinoid receptor CB2 = cannabinoid receptor CB2 (Homo sapiens, UniProt P34972); details: cited from earlier work
[2] = orally-administered; cited from earlier work
[3] = tested on: mouse model of schizophrenia; test: Open-field test (ambulation/crossing, rearing, grooming)
[4] = tested on: mouse model of schizophrenia; test: Prepulse inhibition (PPI) of the startle reflex; details: for % inhibition (ability to adjust to sound stimulus, PPI): Study I, age 8 weeks
[5] = tested on: mouse model of schizophrenia; test: Behavior in the Phenotyper cage; type: in vivo, mice; details: Study II
[6] = in vivo; cited from earlier work
[7] = Body weight of mice in the neonatal PCP model
[8] = Study III: male mice, PND 17, PCP 5 mg/kg, 1 h later BCP 10 mg/kg or BCP+AM630 10 mg/kg each, DMSO-based vehicle
[9] = Study II, PND 68, saline-treated mice

cannabinoid receptor CB2, sequence (P34972 whole entry): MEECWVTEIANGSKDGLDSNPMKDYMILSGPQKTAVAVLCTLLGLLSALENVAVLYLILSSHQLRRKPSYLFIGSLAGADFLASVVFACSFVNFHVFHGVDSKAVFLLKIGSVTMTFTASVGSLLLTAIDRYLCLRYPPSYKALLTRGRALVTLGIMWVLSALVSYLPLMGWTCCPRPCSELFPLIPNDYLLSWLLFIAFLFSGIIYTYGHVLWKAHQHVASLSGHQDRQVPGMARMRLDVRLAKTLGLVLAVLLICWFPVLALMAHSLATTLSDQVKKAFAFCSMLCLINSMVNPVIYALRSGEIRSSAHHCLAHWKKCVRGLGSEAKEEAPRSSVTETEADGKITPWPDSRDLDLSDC

With beta-caryophyllene [BCP] the “time spent in the distal end of the opened arm (anxiety)” value ([1]; females (FIGS. 6E, 6G)) was “reversed this effect; also recorded: reversed both effects”, the “time spent in the distal end of the opened arm (anxiety)” value ([1]; males (FIGS. 6F, 6H)) was “reversed this effect; also recorded: reversed both effects” and the “behavior in the Plus Maze test” value ([1]; Study II, PND 64 (FIGS. 19A-19F)) was “did not reverse the effects of PCP on behavior in the Plus Maze test”. The “activity at CB2 receptor” value (cannabinoid receptor CB2) was “CB2-receptor agonist”, the “oral absorption / systemic availability” value [2] was “absorbed by the digestive tract and becomes systemically available” and the ambulation ([3]; Study I, DMSO-based carrier, PND 17, males (FIG. 12A)) was “completely reversed the effects of PCP”. For the same substance, the rearing behavior ([3]; Study I, DMSO-based carrier, PND 17, males (FIG. 12B)) was “completely reversed the effects of PCP”, the rearing ([3]; Study I, ethanol-based vehicle, PND 17 (FIG. 2B)) was “reversed the effects of PCP on rearing and exploration” and the “ambulation (exploration)” value ([3]; Study I: PCP 5 mg/kg, BCP 10 mg/kg, ethanol-based vehicle, PND 17 (FIG. 2A)) was “reversed the effects of PCP on rearing and exploration”. The ambulation ([3]; Study I, PND 17, females) was “reversed a proportion of the effects of PCP on ambulation and rearing behavior of female mice”, the rearing behavior ([3]; Study I, PND 17, females) was “reversed a proportion of the effects of PCP on ambulation and rearing behavior of female mice” and the locomotor activity ([3]; Study I, PND 17, males) was “appeared to be less sensitive to the treatment of PCP or PCP+BCP”. The “rearing and exploration behaviors” value ([3]; Study I, PND 35-37, females (FIGS. 4E, 4F)) was “no differences in rearing and exploration behaviors were seen between the different groups”, the rearing behavior ([3]; Study I, PND 35-37, males (FIG. 4B)) was “significantly reduced rearing behavior as compared to vehicle and PCP-treated groups” and the locomotor activity ([3]; Study I, PND 35-37, males (FIG. 4C)) was “reduced locomotor activity; also recorded: significantly reversed the effect of PCP in males”. The exploration ([3]; Study II: BCP in adolescence compared with saline-treated mice, PND 63) was “significantly inhibited the exploration of mice compared with saline-treated mice”, the ambulation ([3]; Study II: neonatal PCP, BCP 5 mg/kg PND 43-61, PND 63, male and female) was “significantly reversed the effect of PCP on ambulation in male and female mice” and the rearing ([3]; Study II, PND 63, females and males (FIGS. 15A-15C)) was “reversed the effect of PCP on rearing in both females and males”. The exploratory behavior ([3]; Study II, PND 104, females (last BCP treatment PND 61)) was “a relapse in exploratory behavior was evident”, the “self-grooming (total, without stimuli)” value ([3]; Study II, PND 104, females or males) was “did not reverse the effect of PCP on self-grooming; also recorded: did not reverse the effect of PCT on grooming” and the exploration ([3]; Study II, PND 104, males) was “improved exploration and rearing behaviors of male PCP treated mice”. The rearing behavior ([3]; Study II, PND 104, males) was “still significantly higher than that of PCP-treated mice with no BCP treatment; also recorded: improved exploration and rearing behaviors of male PCP treated mice”, the ambulation [3, 8] was “reversed the effects of PCP on rearing and exploration” and the rearing [3, 8] was “reversed the effects of PCP on rearing and exploration”. The “% inhibition (ability to adjust to sound stimulus, PPI)” value ([4]; females (FIG. 5D)) was “No significant difference”, the “% inhibition (ability to adjust to sound stimulus, PPI)” value ([4]; males (FIG. 5B)) was “reversed this effect; also recorded: significantly reversed the effect of PCP on the sensorimotor-gate in males” and the “response to startle at the end of the PPI test” value ([4]; Study II, PND 68 (FIGS. 18A-18C)) was “did not affect the response to startle at the end of the PPI test”. For the same substance, the “pre-pulse inhibition (% PPI)” value ([4]; Study II, PND 68, PCP-treated mice (FIG. 16A)) was “significantly reversed the effect of PCP on pre-pulse inhibition; also recorded: reversed the effect of PCP on PPI”, the “response to pre-pulse tones” value ([4]; Study II, PND 68, PCP-treated mice (FIGS. 17A-17C)) was “significantly reversed the effect of PCP on response to pre-pulse tones; also recorded: reversed the effect of PCP on the response to tone” and the startle response ([4]; Study II, PND 68, females (FIG. 16B)) was “significantly reversed the effect of PCP on startle response in females”. For the same substance, the “response to the startle stimuli” value ([4]; Study II, PND 68, males (FIG. 16C)) was “no difference in the response to the startle stimuli between groups”, the “pre-pulse inhibition (% PPI)” value [4, 9] was “no substantial effect on saline-treated mice” and the “response to pre-pulse tones” value [4, 9] was “no effect on saline-treated mice”. The “response to the startle stimuli (120 dB)” value ([4]; Study II, PND 106 (FIGS. 25A-25C)) was “no difference in the response to the startle stimuli (120 dB) between groups”, the response to tones ([4]; Study II, PND 106 (FIGS. 25D-25F)) was “reversed the effect of PCP on the response to tones” and the “% pre-pulse inhibition (PPI)” value ([4]; Study II, PND 106 (FIGS. 25G-25I)) was “reversed the effect of PCP on the % pre-pulse inhibition; also recorded: reversed the effect of PCP on attention at PND106”. For the same substance, the “time spent in the food zone” value ([5]; PND 91) was “did not affect the time spend in the food zone”, the “time spent at the drinking zone” value ([5]; PND 91, compared with PCP-treated group) was “appeared to reduce the time spend at the drinking zone” and the “frequency of entries to the wheel” value ([5]; PND 91, females and males) was “reversed the effects of PCP on the frequency of entries to the wheel; also recorded: reversed the effects of PCP on frequency of entries to the wheel”. The “time spent in the Hidden Zone” value ([5]; PND 91, females and males) was “reversed the effects of PCP on the time spend in the Hidden Zone; also recorded: reversed the effects of PCP on the time spent in the hidden zone”, the “frequency of entries to the hidden zone” value ([5]; PND 91, males (FIG. 20D)) was “reversed the effect of PCP in males” and the “frequency of entries to the Wheel Zone” value ([5]; PND 105) was “appeared to reduce the effect of PCP on the frequency of entries to the Wheel Zone”. The “frequency of entries to the hidden zone” value ([5]; PND 105) was “reversed the effects of PCP on the frequency of entries to the hidden zone; also recorded: reversed the effect of PCP on frequency of entries to hidden zone”, the “time spent at the hidden zone” value ([5]; PND 105) was “reversed the effects of PCP on the time spend at the hidden zone; also recorded: reversed the effect of PCP on time spent at the hidden zone” and the “time spent in the wheel” value ([5]; PND 105) was “showed a trend to reverse the effect of PCP on the time spend in the wheel”. The toxicity [6] was “apparent substantial non-toxicity”, the body weight ([7]; Study I, BCP 10 mg/kg in DMSO-based vehicle (FIG. 12C)) was “completely reversed the effect of PCP on body weight” and the body weight ([7]; Study I, ethanol-based vehicle, PND 7 / first week of life (FIG. 1B)) was “reversed the reduction in body weight during the first week of life”. The body weight ([7]; Study I: PCP 5 mg/kg PND 3-16, BCP 10 mg/kg 1 h after PCP, ethanol-based vehicle, each day of injection PND 3-17 (FIG. 1A)) was “did not restore the weight completely”, the body weight ([7]; Study I, PND 17 (FIG. 2C)) was “no significant difference between groups treated with PCP with or without BCP” and the body weight ([7]; Study I, PND 17, males (FIG. 3A)) was “appeared to be more prominent”. The body weight ([7]; Study I, PND 35-37, females (FIG. 4D)) was “significantly reversed the effect of PCP on female body weight”, the body weight ([7]; Study I, PND 35-37, males (FIG. 4A)) was “no significant difference in male body weight between the groups” and the body weight ([7]; Study II: BCP 5 mg/kg twice a week on PND 43-61 (FIG. 14A)) was “did not affect body weight”. The body weight ([7]; Study II, PND 104) was “did not increase body weight in females and males, rather reduced body weight of PCP+BCP treated group”.
